In US20130191933A1, “METHODS OF TREATING PAIN AND MORPHINE TOLERANCE VIA MODULATION OF HEDGEHOG SIGNALLING PATHWAY” (BOARD OF REGENTS, THE UNIVERSITY OF TEXAS SYSTEM, priority 2010, published 2013):
“Also recorded” adds a separate entry of the source. Read-outs that look alike come from different tables or passages of the source.

Columns and labels:
Smo = Smo (Homo sapiens, UniProt Q99835); conditions: cited from earlier work
[1] = tested on: Gli-mediated transcription; conditions: cited from earlier work; for Gli-mediated transcription: in a variety of cell types (Cur-61414: cell and tissues types; Robotnikinin: also synthetic human tissue)
[2] = tested on: rats with sciatic nerve ligation (neuropathic pain); experiment: Neuropathic pain paradigm: sciatic nerve ligation, mechanical allodynia by Von Frey filaments; format: in vivo, Sprague-Dawley rats; conditions: rats two weeks after sciatic nerve ligation; daily intrathecal (lumbar puncture) drug; sub-clinical/low dose of morphine
Description: Animals underwent sciatic nerve ligation as described (Chung et al.), and were then allowed to recover for two weeks. Allodynia was measured using mechanical withdrawal threshold (Von Frey hairs). […] Drugs were administered using lumbar puncture under anesthesia.
Hh signaling modulates neuropathic pain, inflammatory pain, and opioid tolerance in rats. […] With regards to neuropathic pain, animals underwent sciatic nerve ligation as previously described in Chung et al., and were then allowed to recover for two weeks. Allodynia was measured by assessing the withdrawal threshold to a mechanical stimulus (Von Frey hairs). […] Drugs were administered using lumbar puncture under anesthesia.
To test this, we examined the effects of pharmacologically blocking Smoothened activity in rodent pain models. Injection of Complete Freund's Adjuvant (CFA) into the rat hindpaw causes local inflammation, swelling, and decreased nociceptive thresholds, Stein, C., et al., A. Unilateral inflammation of the Hindpaw in rats as a Model of Prolonged Noxious Stimulation: Alterations in Behavior and Nociceptive Thresholds, Pharmacol Biochem Behav 31, […] (1988). FIG. 11 provides an inflammatory pain paradigm. Here, the hindpaws were injected with saline (sham, n=6), or CFA. […] Similarly, FIG. 10 provides a neuropathic pain paradigm. […] Mechanical allodynia was assessed using Von Frey filaments. […]

[3] = tested on: rats with complete Freund's adjuvant (CFA) injection (inflammatory pain); experiment: Inflammatory pain paradigm: CFA hindpaw injection, thermal hyperalgesia by paw withdrawal latency (PWL); format: in vivo, Sprague-Dawley rats; conditions: rats after CFA hindpaw injection; for analgesic effect on thermal hyperalgesia (paw withdrawal latency, PWL): intrathecal (lumbar puncture) drug, Days 1-4; for development of tolerance to the analgesic effect (PWL): repeated intrathecal dosing
Description: Animals underwent complete Freund's adjuvant (CFA) injection under anesthesia. Hyperalgesia was then measured using withdrawal latency of the paw to a thermal stimulus (PWL). […] Drugs were administered using lumbar puncture under anesthesia.
Hyperalgesia was then measured using withdrawal latency of the paw to a thermal stimulus (PWL). […] Drugs were administered using lumbar puncture under anesthesia..
To test this, we examined the effects of pharmacologically blocking Smoothened activity in rodent pain models. Injection of Complete Freund's Adjuvant (CFA) into the rat hindpaw causes local inflammation, swelling, and decreased nociceptive thresholds, Stein, C., et al., A. Unilateral inflammation of the Hindpaw in rats as a Model of Prolonged Noxious Stimulation: Alterations in Behavior and Nociceptive Thresholds, Pharmacol Biochem Behav 31, […] (1988). FIG. 11 provides an inflammatory pain paradigm. Here, the hindpaws were injected with saline (sham, n=6), or CFA. […] Similarly, FIG. 10 provides a neuropathic pain paradigm. […] Animals received daily intrathecal injections of vehicle (n=3) or drugs (CP, n=6; MS, n=6; or MS+CP, n=5). Mechanical allodynia was assessed using Von Frey filaments. […] All data are+/−S.E.M.
Animals: Sprague-Dawley rats (male, […]) were housed three to a cage with water and food ad libitum and kept in temperature controlled rooms on a 12:12 hour light-dark cycle, with the dark cycle beginning at 7:00 pm. Animals were habituated to the testing environment for one week prior to testing and all tests were performed in the morning. All protocols were approved by our Institutional Animal Care and Use Committee.
(§1) Drugs and Intermittent Lumbar Puncture: Rats were anesthetized with 2% isoflurane in oxygen. The lumbar region was shaved, prepared with Betadine solution and the intervertebral spaces widened by placing the animal on a plexiglas tube.
Complete Freund's Adjuvant (CFA) […]: Under isoflurane […], the plantar surface of the left hindpaw was cleansed and 100 μl of CFA (Sigma, St. Louis, Mo.) injected using a 25-gauge needle. Animals recovered for 24 hours prior to analgesic testing.
Paw Withdrawal Latency (PWL): PWL was measured by placing the animals in Plexiglas cages (9×22×25 cm.) on a modified Hargreaves Device, consisting of a glass surface maintained at 30° C. A stimulus lamp was focused on the tail with three measurements taken on different portions of the tail. An abrupt flick of the tail secondary to the thermal stimulus was sensed by photodiodes, and this served to terminate the stimulus and stop the timer. Animals were habituated to the device for one week prior to testing and for 30 min before each test session. The intensity of the thermal stimulus used in the TFL test was adjusted so baseline TFL was between 10-12 seconds to 20 second was used as an automatic cutoff time to avoid paw damage. The TFLs at the time points of 15, 30, and 45 minutes post-injection were measured and compared (n=6-8 per group).

[4] = tested on: morphine tolerance in rats; experiment: Morphine tolerance assessed by tail flick latency (TFL); format: in vivo
Description: (§2) Drugs were administered daily using lumbar puncture under anesthesia. Tolerance was then assessed using tail flick latency (TFL), or the withdrawal latency of the tail to a thermal stimulus. […] On Day 8, all animals received morphine alone.
as §2, §1

[5] = tested on: Ptchl and BCL2 in HaCaT cells; conditions: cited from earlier work
[6] = tested on: Glil,2-mediated transcription in HaCat cells; conditions: cited from earlier work

Sequence of Smo (Q99835 28-787): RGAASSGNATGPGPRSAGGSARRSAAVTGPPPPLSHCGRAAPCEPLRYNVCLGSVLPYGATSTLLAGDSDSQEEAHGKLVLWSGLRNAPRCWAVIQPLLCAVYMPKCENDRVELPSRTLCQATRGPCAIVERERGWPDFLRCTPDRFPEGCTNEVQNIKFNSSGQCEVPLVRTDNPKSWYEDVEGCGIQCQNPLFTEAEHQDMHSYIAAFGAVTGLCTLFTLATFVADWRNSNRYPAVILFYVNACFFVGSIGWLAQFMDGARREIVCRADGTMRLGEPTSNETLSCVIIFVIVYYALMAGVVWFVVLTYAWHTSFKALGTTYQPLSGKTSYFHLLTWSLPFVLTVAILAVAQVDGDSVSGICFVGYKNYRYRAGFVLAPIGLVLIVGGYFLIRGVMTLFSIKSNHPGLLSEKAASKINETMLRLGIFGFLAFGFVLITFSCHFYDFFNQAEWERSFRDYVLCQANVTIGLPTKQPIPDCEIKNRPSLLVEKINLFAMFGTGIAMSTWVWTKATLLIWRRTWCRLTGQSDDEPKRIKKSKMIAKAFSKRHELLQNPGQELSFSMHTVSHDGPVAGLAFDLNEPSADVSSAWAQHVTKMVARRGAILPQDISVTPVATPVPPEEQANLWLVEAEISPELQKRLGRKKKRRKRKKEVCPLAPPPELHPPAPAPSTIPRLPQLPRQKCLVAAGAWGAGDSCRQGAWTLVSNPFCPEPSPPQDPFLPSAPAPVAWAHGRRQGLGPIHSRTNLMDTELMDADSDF

Structure (SMILES)	targeting / binding of Smo (Smo)	Gli-mediated transcription [1]	further results
CC(C)CCC[C@](C)(O)[C@H]1CC[C@H]2[C@@H]3CC=C4C[C@@H](O)CC[C@]4(C)[C@H]3CC[C@@]21C [20α-Hydroxycholesterol]	Does not bind directly to Smo	Activates Gli-mediated transcription in a variety of cell types	
CC(C)CC[C@H](O)[C@@H](C)[C@H]1CC[C@H]2[C@@H]3CC=C4C[C@@H](O)CC[C@]4(C)[C@H]3CC[C@]12C [22(S)-Hydroxycholesterol]	Does not bind directly to Smo	Activates Gli-mediated transcription in a variety of cell types	
CC(C)[C@@H](O)CC[C@@H](C)[C@H]1CC[C@H]2[C@@H]3CC=C4C[C@@H](O)CC[C@]4(C)[C@H]3CC[C@]12C [24(S)-Hydroxycholesterol]	Does not bind directly to Smo	Activates Gli-mediated transcription in a variety of cell types	
C[C@H](CCCC(C)(C)O)[C@H]1CC[C@H]2[C@@H]3CC=C4C[C@@H](O)CC[C@]4(C)[C@H]3CC[C@]12C [25-Hydroxycholesterol]	Does not bind directly to Smo	Activates Gli-mediated transcription in a variety of cell types	
COc1cccc(CN(C(=O)CC(C)(C)C)[C@H]2C[C@@H](C(=O)N3CCNCC3)N(Cc3ccc4c(c3)OCO4)C2)c1 [Cur-61414]	Targets Smo		
CC1=C2C[C@H]3[C@@H](CC=C4C[C@@H](O)CC[C@@]43C)[C@@H]2CC[C@]12O[C@@H]1C[C@H](C)CN[C@H]1[C@H]2C [Cyclopamine]	Targets Smo		targeting / binding of Smo (Smo; listed as cyclopamine): target Smo; analgesic effect on mechanical allodynia (mechanical withdrawal threshold, Von Frey) [2]: Neither morphine or cyclopamine had analgesic effects; also recorded: Neither a sub-clinical dose of morphine nor cyclopamine had analgesic effects; also recorded: neither cyclopamine nor a low dose of morphine had analgesic effects alone; analgesic effect on thermal hyperalgesia (paw withdrawal latency, PWL) [3]: mild analgesic effect that plateaued; analgesic effect on thermal hyperalgesia (paw withdrawal latency, PWL) ([3]; listed as cyclopamine): mild analgesic effect that plateaued; also recorded: had no analgesic effect; reversal of morphine tolerance (tail flick latency, TFL) ([4]; daily lumbar puncture, cyclopamine added to morphine from start, Day 3 or Day 5): completely reversed tolerance within two days; also recorded: reverses the development of morphine tolerance; tolerance on Day 8 after cyclopamine was removed (TFL) ([4]; on Day 8 all animals received morphine alone): animals were not tolerant on Day 8
c1cc(-c2sc(-c3ccncc3)c(-c3ccncc3)c2-c2ccncc2)ccn1 [GANT58]		Represses Gli-medicated transcription in a variety of cell types	site of action in the pathway [1]: Acts downstream of Smo and Sufu
CN(C)c1ccccc1CN1CCCN(Cc2ccccc2N(C)C)C1c1ccncc1 [GANT61]		Represses Gli-medicated transcription in a variety of cell types	site of action in the pathway [1]: Acts downstream of Smo and Sufu
CS(=O)(=O)c1ccc(C(=O)Nc2ccc(Cl)c(-c3ccccn3)c2)c(Cl)c1 [GDC-0449]	Targets Smo	Represses Gli-medicated transcription in a variety of cell types	
CC1=C2C[C@H]3[C@@H](CC[C@@H]4C[C@H](NS(C)(=O)=O)CC[C@@]43C)[C@@H]2CC[C@@]2(C1)O[C@@H]1C[C@H](C)CN[C@H]1[C@H]2C [IPI-926]	Targets Smo	Represses Gli-medicated transcription in a variety of cell types	
CC1=C2C[C@H]3[C@@H](CC=C4CC(=O)CC[C@@]43C)[C@@H]2CC[C@]12O[C@@H]1C[C@H](C)CN(CCNC(=O)CCCCCNC(=O)CCc3ccccc3)[C@H]1[C@H]2C [KAAD-cyclopamine]	target Smo		
C[C@]12C(=O)C=CCC1=CC[C@@H]1[C@@H]2CC[C@]2(O)C(=O)O[C@@]3(C)[C@H]4C[C@]5(C)[C@@H](CO[C@@]16O[C@@]32[C@H]5C6=O)C(=O)O4 [Physalin B]			transcription of Ptchl and BCL2 [5]: Inhibits transcription of Ptchl and BCL2 in HaCaT cells; Glil,2-mediated transcription [6]: Inhibits Glil,2-mediated transcription in HaCat cells
C[C@@]12C[C@H]3OC(=O)[C@@H]1CO[C@]14O[C@]5([C@H]2C1=O)[C@@](O)(CC[C@H]1[C@H]4C[C@H]2O[C@]24CC=CC(=O)[C@]14C)C(=O)O[C@@]35C [Physalin F]			transcription of Ptchl and BCL2 [5]: Inhibits transcription of Ptchl and BCL2 in HaCaT cells; Glil,2-mediated transcription [6]: Inhibits Glil,2-mediated transcription in HaCat cells
c1ccc2c(Oc3nc(Nc4ccc(N5CCOCC5)cc4)c4ncn(C5CCCCC5)c4n3)cccc2c1 [Purmorphamine]	Binds Smo and competes directly with cyclopamine-Smo	Activates Gli-mediated transcription in a variety of cell types	
CNC1CCC(N(Cc2cccc(-c3ccncc3)c2)C(=O)c2sc3ccccc3c2Cl)CC1 (stereo not drawn) [SAG]	Binds Smo and competes directly with cyclopamine-Smo	Activates Gli-mediated transcription in a variety of cell types	
Cc1nn(-c2ccccc2)c(C)c1/C=N/N1CCN(Cc2ccccc2)CC1 [SANT1]	Targets Smo	Represses Gli-medicated transcription in a variety of cell types	
CCOc1cc(C(=O)Nc2ccc(Cl)c(-c3nc4ccccc4[nH]3)c2)cc(OCC)c1OCC [SANT2]	Targets Smo	Represses Gli-medicated transcription in a variety of cell types	
CCc1ccc(-c2ccc(/C=C/C(=O)N3CCCCC3)cc2)nc1 [SANT4]	Targets Smo	Represses Gli-medicated transcription in a variety of cell types	
O=C1NCc2c1c1c3ccccc3[nH]c1c1[nH]c3ccccc3c21 [Staurosporinone]			transcription of Ptchl and BCL2 [5]: Inhibits transcription of Ptchl and BCL2 in HaCaT cells; Glil,2-mediated transcription [6]: Inhibits Glil,2-mediated transcription in HaCat cells
C/C1=C\CC(C)(C)/C=C/C(=O)/C(C)=C/CC1 [Zerumbone]			transcription of Ptchl and BCL2 [5]: Inhibits transcription of Ptchl and BCL2 in HaCaT cells; Glil,2-mediated transcription [6]: Inhibits Glil,2-mediated transcription in HaCat cells
CN1CC[C@]23c4c5ccc(O)c4O[C@H]2[C@@H](O)C=C[C@H]3[C@H]1C5 [morphine]			analgesic effect on mechanical allodynia (mechanical withdrawal threshold, Von Frey) [2]: Neither morphine or cyclopamine had analgesic effects; also recorded: Neither a sub-clinical dose of morphine nor cyclopamine had analgesic effects; also recorded: neither cyclopamine nor a low dose of morphine had analgesic effects alone; analgesic effect on thermal hyperalgesia (paw withdrawal latency, PWL) [3]: caused analgesia; analgesic effect on thermal hyperalgesia (paw withdrawal latency, PWL) ([3]; listed as Morphine): exhibited analgesic effects; development of tolerance to the analgesic effect (PWL) [3]: tolerance developed with repeated dosing; development of tolerance to the analgesic effect (PWL) ([3]; listed as Morphine): tolerance developed rapidly
